Assay results published in patent US20240034991A1, “METHOD FOR EFFICIENTLY INDUCING REPROGRAMMING OF HUMAN CELL INTO NEURONAL CELL” (GUANGXI UNIVERSITY, priority 2022, published 2024).

System: Human skin fibroblasts (BJ)
Assay: Immunofluorescence detection of neuronal cell marker antigens in induced human skin fibroblasts (CiNCs)
Type: cell-based
Protocol: After 48 h of induction, the induction medium was replaced with a neuronal cell maturation medium to continue promoting further maturation of the CiNCs, and the neuronal cell maturation medium was replaced with a neuronal cell medium after 72 h for long-term culture.
Immunofluorescence detection of neuronal cell marker antigens was conducted on human skin fibroblasts and cells induced by neuronal cell induction (N2B27+10 μM Forskolin) for 48 h. The method included the following specific steps: human skin fibroblasts and F-48h cells in a culture plate were fixated with 4% paraformaldehyde (PFA) at room temperature for 30 min; the cells were washed with a blocking solution three times, 5 min in each time; the cells were permeabilized by 1% TritonX-100 for 15 min at room temperature; the cells were washed with the blocking solution three times again; non-specific sites were blocked with 5% donkey serum, and then blocked for 2 h at room temperature; the cells were washed three times with TBP (Tritonx-Bovine albumin-Phosphate Buffer Saline) for 5 min in each time; a primary antibody was added for incubation at 4° C. overnight; on a next day, the culture plate was placed at room temperature, rewarmed for 20 min, and then washed with TBP three times for 5 min in each time, a secondary antibody and a Hoechst mixture were added in the dark, and incubated at room temperature for 1 h; after washing three times with a TBP solution, fluorescence microscope observation and photographing experiment were conducted.

Row | SMILES | Expression of neuronal cell marker antigens TUJ1, MAP2 and NeuN (immunofluorescence, FIG. 5) (N2B27+KSR+5 μM compound) | further results
1 | Nc1ncnc2c1ncn2[C@@H]1O[C@@H]2COP(=O)(O)O[C@H]2[C@H]1O [cAMP, cyclic Adenosine Monophosphate] | – | Expression of neuronal cell marker antigens TUJ1, MAP2 and NeuN (immunofluorescence, FIG. 5) (N2B27+KSR+10 μM compound): expressed neuronal cell marker antigens TUJ1, MAP2 and NeuN
2 | c1ccc2c(-c3cnn4cc(-c5ccc(N6CCNCC6)cc5)cnc34)ccnc2c1 [LDN193189] | expressed neuronal cell marker antigens TUJ1, MAP2 and NeuN | –
3 | C[S+]([O-])c1ccc(-c2nc(-c3ccncc3)c(-c3ccc(F)cc3)[nH]2)cc1 (stereo not shown) [SB203580] | expressed neuronal cell marker antigens TUJ1, MAP2 and NeuN | –
4 | C=C[C@@]1(C)CC(=O)[C@]2(O)[C@@]3(C)[C@@H](O)CCC(C)(C)[C@@H]3[C@H](O)[C@H](OC(C)=O)[C@@]2(C)O1 [Forskolin] | – | TUJ1 positive rate of CiNCs (N2B27+KSR+10 μM Forskolin, 48 h after induction): 80%
